The text below walks through data of patent US20100022559A1, “BISOXIMES AS FUNGICIDES” (BAYER CROPSCIENCE AG, priority 2006, published 2010).

A short description of the first data set: logP determination by HPLC on a reversed-phase column (C 18), EEC Directive 79/831 Annex V.A8. Format: physicochemical. As to conditions: method marker [a] (footnote not shown); isomer A / isomer B / isomer mixture as noted in the cell. How it is done:
The stated logP values were determined in accordance with EEC Directive 79/831 Annex V.A8 by HPLC (high performance liquid chromatography) on a reversed-phase column (C 18). Temperature: 43° C.
Regarding `CC(=NOCCCON=C(C)c1ccc(C)c(C)n1)c1ccc(C)c(C)n1` [Compound 72], the logP is 2.23^[a].
For `CC(=NOCCCON=C(C)c1ccc(C)cn1)c1ccc(C)cn1` [Compound 81], the logP is 2.90^[a].
In the case of `CCC(=NOCCCON=C(CC)c1cccc(C)n1)c1cccc(C)n1` [Compound 90], the logP was 4.44^[a].
Same read-out and setting: the result for `CCCC(=NOCCCON=C(CCC)c1cccc(C)n1)c1cccc(C)n1` [Compound 91] reads 5.83^[a]; that for `CCCC(=NOCC(C)CON=C(CCC)c1cccc(C)n1)c1cccc(C)n1` (stereo not drawn) [Compound 112], 6.61^[a]; that for `CCC(=NOCC(C)CON=C(CC)c1cccc(C)n1)c1cccc(C)n1` (stereo not drawn) [Compound 116], 5.40^[a].
Consider `CC(=NOCC(C)CON=C(C)c1ccc(C)c(C)n1)c1ccc(C)c(C)n1` (stereo not drawn) [Compound 118], for which the logP is 2.99^[a].
Regarding `CC(=NOCC(C)CON=C(C)c1cc(-c2ccccc2)ccn1)c1cc(-c2ccccc2)ccn1` (stereo not drawn) [Compound 119], the logP was 6.33^[a].
As to `CC(=NOCCCON=C(C)c1cccc(Cc2ccccc2)n1)c1cccc(Cc2ccccc2)n1` [Compound 131], the logP is 6.95^[a].
On the same count and under the same terms, the result for `CC(=NOCCCON=C(C)c1cccc(CC(C)C)n1)c1cccc(CC(C)C)n1` [Compound 134] reads 7.36^[a]; that for `CCc1ccnc(C(C)=NOCCCON=C(C)c2cc(CC)ccn2)c1` [Compound 136], 2.98^[a].
Still for that read-out and setting: the result for `CC(=NOCC(C)CON=C(C)c1cccc(C(F)(F)F)n1)c1cccc(C(F)(F)F)n1` (stereo not drawn) [Compound 169] reads 6.41^[a].
Still for that read-out and setting: next, `CC(=NOCC(C)CON=C(C)c1cccc(Cc2ccccc2)n1)c1cccc(Cc2ccccc2)n1` (stereo not drawn) [Compound 173]: 7.36^[a].
With `CCCc1cccc(C(C)=NOCCCON=C(C)c2cccc(CCC)n2)n1` [Compound 174], the logP was 6.78^[a].
Still for that read-out and setting: next, `CCCc1cccc(C(C)=NOCC(C)CON=C(C)c2cccc(CCC)n2)n1` (stereo not drawn) [Compound 175]: 7.36^[a]; `CCc1cccc(C(C)=NOCC(C)CON=C(C)c2cccc(CC)n2)n1` (stereo not drawn) [Compound 179]: 6.21^[a]; `CCc1cccc(C(C)=NOCCCON=C(C)c2cccc(CC)n2)n1` [Compound 180]: 5.43^[a].

The same data set, now with this note: method marker [b]; isomer A / isomer B / isomer mixture as noted in the cell.
On to `C=C(CON=C(C)c1ccc(C(F)(F)F)cn1)CON=C(C)c1ccc(C(F)(F)F)cn1` [Compound 61], for which the logP was 6.18^[b].
Same read-out and setting: next, `C=C(CON=C(C)c1cccc(CCC)n1)CON=C(C)c1cccc(CCC)n1` [Compound 62]: 6.89^[b]; `C=C(CON=C(C)c1ccc(C(F)(F)F)cn1)CON=C(C)c1cccc(C)n1` [Compound 66]: 5.15^[b].
Still for that read-out and setting: next, `C=C(CON=C(C)c1ccc(C)c(C)n1)CON=C(C)c1ccc(C)c(C)n1` [Compound 67]: 2.82^[b].
In the case of `CC(=NOCCCCCCON=C(C)c1cccc(C)n1)c1cccc(C)n1` [Compound 73], the logP is 4.47^[b].
Still for that read-out and setting: next, `CC(=NOCCC(C)CCON=C(C)c1cccc(C)n1)c1cccc(C)n1` (stereo not drawn) [Compound 75]: 4.38^[b].
Same read-out and setting: the result for `C=C(CON=C(C)c1cccc(C)n1)CON=C(C)c1cccc(C(C)=O)n1` [Compound 117] reads 4.43^[b]; that for `CC(=NOCCOCCON=C(C)c1cccc(C)n1)c1cccc(C)n1` [Compound 181], 1.84^[b].
In the case of `C=C(CON=C(C)c1cccc(C)n1)CON=C(N)c1nc(C)c2c(n1)CCCC2` [Compound 182], the logP is 2.55^[b].
On the same count and under the same terms, the result for `C=C(CON=C(C)c1cccc(C)n1)CON=C(N)c1nc(C)cc(OC)n1` [Compound 186] reads 2.11^[b]; that for `C=C(CON=C(C)c1cccc(C)n1)CON=C(C)c1nc(C)cc(C)n1` [Compound 188], 2.69^[b].
On the same count and under the same terms, next, `C=C(CON=C(C)c1cccc(C)n1)CON=C(N)c1cc(C)cc(C)n1` [Compound 189]: 2.92^[b]; `C=C(CON=C(C)c1cccc(C)n1)CON=C(C)c1ccc2ccccc2n1` [Compound 202]: 5.25^[b].
